Laboratory results published in US8796224B2, “Methods for preparing purified lipopeptides” (priority 2000, dated 2014).
Values after ≈ are worked out from the molar mass of the structure shown.

Legend:
susceptible strains = test: Minimum inhibitory concentration (MIC) in in vitro experiments; type: cell-based, gram-positive organisms; conditions: against susceptible strains, compared with vancomycin, 'typically'
[1] = Hygroscopicity of the amorphous preparation; type: physicochemical; conditions: amorphous daptomycin preparation

| Structure (SMILES) | solubility (physchem; solubility in normal saline) [mg/mL] | solubility (physchem; solubility in ethanol) [mg/mL] | solubility (physchem; solubility in water) [mg/mL] | MIC value, fold lower than that of vancomycin (susceptible strains) [fold] | hygroscopicity [1] |
| --- | --- | --- | --- | --- | --- |
| CCCCCCCCCCC(=O)NC(Cc1c[nH]c2ccccc12)C(=O)NC(CC(N)=O)C(=O)NC(CC(=O)O)C(=O)NC1C(=O)NCC(=O)NC(CCCN)C(=O)NC(CC(=O)O)C(=O)NC(C)C(=O)NC(CC(=O)O)C(=O)NCC(=O)NC(CO)C(=O)NC(C(C)CC(=O)O)C(=O)NC(CC(=O)c2ccccc2N)C(=O)OC1C (centres unmarked) [CB-131547] | ~80 (≈ 48.9 mM) | – | – | – | – |
| CCCCCCCCCC(=O)N[C@@H](Cc1c[nH]c2ccccc12)C(=O)N[C@H](CC(N)=O)C(=O)N[C@@H](CC(=O)O)C(=O)N[C@@H]1C(=O)NCC(=O)N[C@@H](CCCN)C(=O)N[C@@H](CC(=O)O)C(=O)N[C@H](C)C(=O)N[C@@H](CC(=O)O)C(=O)NCC(=O)N[C@H](CO)C(=O)N[C@@H]([C@H](C)CC(=O)O)C(=O)N[C@@H](CC(=O)c2ccccc2N)C(=O)O[C@@H]1C [daptomycin] | – | 2.8 (≈ 1.73 mM) | > 1000 | 4 | hygroscopic |
